According to patent US4578489A (priority 1982, dated 1986):
Like-named read-outs stand apart in the source and are kept apart here.

Assays:
[1] = system: Alternaria alternata; test: Minimum inhibitory concentration against fungi, agar incorporation test, strain N; format: cell-based; settings: malt extract/agar
Method in brief: (§1)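 Malt extract agar with test compound at final 2, 5, 10, 50, 100 mg/liter; fungi spotted dropwise; MIC = lowest mg/liter preventing growth.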

[2] = system: Pseudomonas aeruginosa; test: Minimum inhibitory concentration against bacteria, strain B; format: cell-based; settings: 24 hours at 30° C.; tested at 100 and 300 mg/liter
Method in brief: (§2)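 Overnight cultures diluted 1/1000 in saline, then 1/1000 again into Caso peptone bouillon. Compounds added at 100 and 300 mg/liter; incubation 24 hours at 30° C. with shaking, then growth judged by turbidity.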

[3] = system: Aspergillus phoenicis; test: Minimum inhibitory concentration against fungi, agar incorporation test, strain L; format: cell-based; settings: malt extract/agar
Method in brief: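 Agar incorporation test in malt extract agar with compound at final 2, 5, 10, 50 and 100 mg/liter, inoculated dropwise with fungus; value is concentration (mg/liter) inhibiting growth.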

[4] = system: Enteromorpha intestinalis; test: Action against Enteromorpha intestinalis: destruction (minimum killing concentration); format: in vivo; settings: 4 hours in seawater, then 6-8 weeks in fresh seawater
Method: (§3) The action against the green alga Enteromorpha, which is the most important in seawter fouling, is investigated in sterile-filtered seawater containing an Erd-Schreiber solution. This solution is composed of a nutrient extract, phosphate and nitrate. The incubation of Enteromorpha intestinalis is carried out in a light thermostat at 18° C. under an alternation of 14 hours of light and 10 hours of darkness.
The algae which have been cultured in this way are exposed to the products under investigation for a short time (4 hours) in seawater. The minimum killing concentration (MKC) is determined by taking the algae out of the seawater containing a specific quantity of algicide, after the treatment time in the latter, washing the algae and investigating growth or mortality after incubation in fresh seawater for a further period of 6-8 weeks.
The minimum killing concentration (MKC) indicates the amount of substance required to cause such damage to the algae within a specific time that they can no longer recover in fresh seawater and die out.

[5] = system: Enterobacter aerogenes; test: Minimum inhibitory concentration against bacteria, strain C; format: cell-based; settings: 24 hours at 30° C.; tested at 100 and 300 mg/liter
Method in brief: as §2

[6] = system: Cladosporium cladosporioides; test: Minimum inhibitory concentration against fungi, agar incorporation test, strain O; format: cell-based; settings: malt extract/agar
Method in brief: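 Compounds incorporated into malt extract agar at final concentrations of 2, 5, 10, 50 and 100 mg/liter, with fungal traces added dropwise. Value is the concentration (mg/liter) required to inhibit fungal growth.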

[7] = system: Candida albicans; test: Minimum inhibitory concentration against fungi, agar incorporation test, strain P; format: cell-based; settings: malt extract/agar
Method in brief: as §1

[8] = system: Aspergillus niger; test: Minimum inhibitory concentration against fungi, agar incorporation test, strain K; format: cell-based; settings: malt extract/agar
Method in brief: as §1

[9] = system: Penicillium funiculosum; test: Minimum inhibitory concentration against fungi, agar incorporation test, strain M; format: cell-based; settings: malt extract/agar
Method in brief: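 Compounds incorporated into malt extract agar at final 2, 5, 10, 50 and 100 mg/liter, then inoculated dropwise with fungus. Value is the concentration (mg/liter) inhibiting growth.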

[10] = system: Enteromorpha intestinalis; test: Action against Enteromorpha intestinalis: inhibitory concentration (MIC); format: in vivo; settings: seawater containing biocide for entire test; concentration tested 0.5 mg/liter
Method: as §3
For determining the inhibitory concentration (MIC), the algae are kept in seawater containing biocide for the entire duration of the test (concentration tested: 0.5 mg/liter).

[11] = system: Chaetomium globosum; test: Minimum inhibitory concentration against fungi, agar incorporation test, strain S; format: cell-based; settings: malt extract/agar
Method in brief: as §1

[12] = system: Artemia salina; test: Action against Artemia salina nauplii; format: in vivo; set-up: key: 0: no change; 1: slight change; 1-2: animals are attacked; 2: animals are strongly attacked; 2-3: animals are nearly all dead; 3: animals are all dead
Method: The eggs, which are available commercially, are caused to hatch by vigorous aeration. When 2-3 days old, the nauplii are exposed to the products at various concentrations (concentrations tested: 2.5; 1; 0.5 and 0.25 mg/liter) in synthetic seawater, and are observed over a prolonged period of time.

[13] = system: Serratia marcencens; test: Minimum inhibitory concentration against bacteria, strain D; format: cell-based; settings: 24 hours at 30° C.; tested at 100 and 300 mg/liter
Method in brief: as §2

[14] = system: Alcaligenes denitrificans; test: Minimum inhibitory concentration against bacteria, strain E; format: cell-based; settings: 24 hours at 30° C.; tested at 100 and 300 mg/liter
Method in brief: as §2

[15] = system: Aureobasidium pullulans; test: Minimum inhibitory concentration against fungi, agar incorporation test, strain R; format: cell-based; settings: malt extract/agar
Method in brief: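 Compounds incorporated in malt extract agar at final 2, 5, 10, 50 and 100 mg/liter. Agar inoculated dropwise with traces of fungus. Value is the concentration (mg/liter) needed to inhibit growth.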

[16] = system: Chlorella vulgaris; test: Action against algae: Chlorella vulgaris; format: cell-based; set-up: key: --: no growth on the agar, 3 ppm have destroyed the algae in 6 hours; settings: 3 mg/liter
Method in brief: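 14-day cultures diluted 1/200 in nutrient medium received compound at 3 mg/liter final. After 6 h, samples were spotted on algae/agar for algicidal action; growth inhibition in medium and killing on agar assessed visually after 14 days under 14 h light/10 h dark.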

[17] = system: mixed culture of bacteria; format: cell-based; set-up: key: +: growth, no destruction; (+): growth less than that of control (>10 colonies), slight destruction; (-): slight growth (1-10 colonies); -: no growth, destruction
[18] = system: Endomyces geotrichum; test: Minimum inhibitory concentration against fungi, agar incorporation test, strain Q; format: cell-based; settings: malt extract/agar
Method in brief: as §1

[19] = system: Bacillus subtilis; test: Minimum inhibitory concentration against bacteria, strain F; format: cell-based; settings: 24 hours at 30° C.; tested at 100 and 300 mg/liter
Method in brief: as §2

[20] = system: Proteus vulgaris; test: Minimum inhibitory concentration against bacteria, strain A; format: cell-based; settings: 24 hours at 30° C.; tested at 100 and 300 mg/liter
Method in brief: as §2

CCCCCCCCCC[N+](C)(C)CCCCCCCCCC.CCC[CH2][Sn-]([Cl])([Cl])([CH2]CCC)[CH2]CCC [Example 4, dimethyl-didecylammonium tributyldichlorostannate-(IV)]
MIC against fungi, strain N [1]: 2 µg/mL
MIC against bacteria, strain B [2]: 100 µg/mL
MIC against fungi, strain L [3]: 5 µg/mL
Destruction, 5 mg/liter [4]: yes
MIC against bacteria, strain C [5]: 100 µg/mL
MIC against fungi, strain O [6]: 5 µg/mL
MIC against fungi, strain P [7]: 5 µg/mL
MIC against fungi, strain K [8]: 2 µg/mL
MIC against fungi, strain M [9]: 5 µg/mL
MIC [10]: 0.5 µg/mL
MIC against fungi, strain S [11]: 2 µg/mL
Action against Artemia salina ([12]; 0,5 mg/l, 6 hours): 1-3
Action against Artemia salina ([12]; 0,5 mg/l, 24 hours): 2-3
Action against Artemia salina ([12]; 0,5 mg/l, 48 hours): 3
Action against Artemia salina ([12]; 0,25 mg/l, 6 hours): 0-1
Action against Artemia salina ([12]; 0,25 mg/l, 24 hours): 2
Action against Artemia salina ([12]; 0,25 mg/l, 48 hours): 2
Action against Artemia salina ([12]; 1 mg/l, 6 hours): 2-3
Action against Artemia salina ([12]; 1 mg/l, 24 hours): 3
Action against Artemia salina ([12]; 1 mg/l, 48 hours): 3
Action against Artemia salina ([12]; 2,5 mg/l, 6 hours): 2-3
Action against Artemia salina ([12]; 2,5 mg/l, 24 hours): 3
Action against Artemia salina ([12]; 2,5 mg/l, 48 hours): 3
MIC against bacteria, strain D [13]: 100 µg/mL
MIC against bacteria, strain E [14]: 100 µg/mL
MIC against fungi, strain R [15]: 2 µg/mL
Growth on the agar (algae-destroying action) ([16]; 6 hours exposure, 14 days incubation): --
Growth in the medium (growth inhibition) ([16]; 14 days): --
Growth (destruction of a mixed culture of bacteria) ([17]; 5 mg/l, culture diluted 1/1000 in Tyrode): +
Growth (destruction of a mixed culture of bacteria) ([17]; 5 mg/l, culture diluted 1/10000 in Tyrode): +
Growth (destruction of a mixed culture of bacteria) ([17]; 10 mg/l, culture diluted 1/1000 in Tyrode): +
Growth (destruction of a mixed culture of bacteria) ([17]; 10 mg/l, culture diluted 1/10000 in Tyrode): (+) (growth less than that of control (>10 colonies), slight destruction)
Growth (destruction of a mixed culture of bacteria) ([17]; 30 mg/l, culture diluted 1/1000 in Tyrode): +
Growth (destruction of a mixed culture of bacteria) ([17]; 30 mg/l, culture diluted 1/10000 in Tyrode): -
Growth (destruction of a mixed culture of bacteria) ([17]; 60 mg/l, culture diluted 1/1000 in Tyrode): (+) (growth less than that of control (>10 colonies), slight destruction)
Growth (destruction of a mixed culture of bacteria) ([17]; 60 mg/l, culture diluted 1/10000 in Tyrode): -
Growth (destruction of a mixed culture of bacteria) ([17]; 100 mg/l, culture diluted 1/1000 in Tyrode): (+) (growth less than that of control (>10 colonies), slight destruction)
Growth (destruction of a mixed culture of bacteria) ([17]; 100 mg/l, culture diluted 1/10000 in Tyrode): -
MIC against fungi, strain Q [18]: 5 µg/mL
MIC against bacteria, strain F [19]: 100 µg/mL
MIC against bacteria, strain A [20]: 100 µg/mL
